Each structure is given as a SMILES string.

The nature of the data set: Coloring and deliquescence of compressed droxidopa/additive mixtures on preservation. The data set is classed as physicochemical. The procedure:
Droxidopa and the following excipients were mixed at 1:1 in a mortar and the mixture was compressed at a pressure of 20 kgf/cm^2 using an oil hydraulic press (manufactured by RIKEN). The obtained tablets were preserved under the respective conditions of 60° C. […] The 60° C. 2 week preservation product was measured for the color difference from the initial stage preservation product using a spectral calorimeter (SE-2000: manufactured by Nippon Denshoku Industries Co., Ltd.).
Droxidopa and the following excipients were mixed at 4:1 in a mortar and the mixture was compressed at a pressure of 20 kgf/cm^2 using an oil hydraulic press (manufactured by RIKEN) .

Take `N[C@H](C(=O)O)[C@H](O)c1ccc(O)c(O)c1` [droxidopa alone (without disintegrant), droxidopa]: the “60° C. × 2 W color difference” value reads like this: (droxidopa:additive 1:1 compressed tablet, difference from initial stage product) 2.73; (droxidopa:additive 4:1 compressed tablet) 2.73.

Source of the values: patent US20090074861A1, “STABLE TABLET CONTAINING DROXIDOPA” (DAINIPPON SUMITOMO PHARMA CO., LTD., priority 2005, published 2009).
